From article PMC3639963, “A New Class of Small Molecule Inhibitor of BMP Signaling” (PLoS ONE, 2013)

Key:
Test in all cases: Nanosyn kinase profiling
Format in all cases: biochemical
Conditions in all cases: read-out: Percentage inhibition; for inhibition at 0.1 µM: 0.1 µM inhibitor; for inhibition at 1 µM: 1 µM inhibitor
CLK2 = target: T1, CLK2 (Homo sapiens, UniProt P49760)
T1 construct: purchased Nanosyn (enzymatic panel); SGC in-house recombinant human kinases (DSF panel); Invitrogen (ALK1-6)
Summary of the method: (§1)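 Percent inhibition of each kinase was measured with the inhibitor at 0.1 µM and at 1 µM, as part of a 200-kinase human selectivity panel.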

EPHA3 = target: T2, EPHA3 (Homo sapiens, UniProt P29320)
T2 construct: purchased Nanosyn (enzymatic panel); SGC in-house recombinant human kinases (DSF panel); Invitrogen (ALK1-6)
T2 sequence (P29320 21-983): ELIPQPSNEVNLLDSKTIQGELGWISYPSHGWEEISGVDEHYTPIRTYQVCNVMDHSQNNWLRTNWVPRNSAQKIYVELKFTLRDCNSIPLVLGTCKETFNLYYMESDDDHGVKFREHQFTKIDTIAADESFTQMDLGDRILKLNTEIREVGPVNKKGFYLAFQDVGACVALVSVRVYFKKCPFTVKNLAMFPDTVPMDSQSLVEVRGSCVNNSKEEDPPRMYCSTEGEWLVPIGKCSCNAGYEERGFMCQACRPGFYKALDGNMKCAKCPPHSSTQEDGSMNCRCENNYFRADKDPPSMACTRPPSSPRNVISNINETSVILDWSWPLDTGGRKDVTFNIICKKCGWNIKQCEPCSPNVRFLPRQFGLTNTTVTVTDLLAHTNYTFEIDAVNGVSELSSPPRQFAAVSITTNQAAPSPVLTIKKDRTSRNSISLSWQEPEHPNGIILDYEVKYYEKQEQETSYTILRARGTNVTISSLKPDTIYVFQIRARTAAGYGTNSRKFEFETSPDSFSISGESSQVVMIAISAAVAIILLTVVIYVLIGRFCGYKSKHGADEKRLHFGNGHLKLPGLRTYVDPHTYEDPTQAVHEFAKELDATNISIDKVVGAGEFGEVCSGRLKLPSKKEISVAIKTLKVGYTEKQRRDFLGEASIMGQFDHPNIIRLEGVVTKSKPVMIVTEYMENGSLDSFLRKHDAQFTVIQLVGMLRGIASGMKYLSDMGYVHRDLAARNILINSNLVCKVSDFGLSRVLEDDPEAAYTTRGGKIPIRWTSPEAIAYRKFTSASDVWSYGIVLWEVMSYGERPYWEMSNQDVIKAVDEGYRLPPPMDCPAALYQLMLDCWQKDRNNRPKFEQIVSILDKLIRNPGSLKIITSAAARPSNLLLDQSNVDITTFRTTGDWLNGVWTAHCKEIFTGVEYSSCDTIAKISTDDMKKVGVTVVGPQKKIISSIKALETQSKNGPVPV
Summary of the method: as §1

PRKD2 = target: T3, PRKD2 (Homo sapiens, UniProt Q9BZL6)
T3 construct: purchased Nanosyn (enzymatic panel); SGC in-house recombinant human kinases (DSF panel); Invitrogen (ALK1-6)
T3 sequence (Q9BZL6 1-878): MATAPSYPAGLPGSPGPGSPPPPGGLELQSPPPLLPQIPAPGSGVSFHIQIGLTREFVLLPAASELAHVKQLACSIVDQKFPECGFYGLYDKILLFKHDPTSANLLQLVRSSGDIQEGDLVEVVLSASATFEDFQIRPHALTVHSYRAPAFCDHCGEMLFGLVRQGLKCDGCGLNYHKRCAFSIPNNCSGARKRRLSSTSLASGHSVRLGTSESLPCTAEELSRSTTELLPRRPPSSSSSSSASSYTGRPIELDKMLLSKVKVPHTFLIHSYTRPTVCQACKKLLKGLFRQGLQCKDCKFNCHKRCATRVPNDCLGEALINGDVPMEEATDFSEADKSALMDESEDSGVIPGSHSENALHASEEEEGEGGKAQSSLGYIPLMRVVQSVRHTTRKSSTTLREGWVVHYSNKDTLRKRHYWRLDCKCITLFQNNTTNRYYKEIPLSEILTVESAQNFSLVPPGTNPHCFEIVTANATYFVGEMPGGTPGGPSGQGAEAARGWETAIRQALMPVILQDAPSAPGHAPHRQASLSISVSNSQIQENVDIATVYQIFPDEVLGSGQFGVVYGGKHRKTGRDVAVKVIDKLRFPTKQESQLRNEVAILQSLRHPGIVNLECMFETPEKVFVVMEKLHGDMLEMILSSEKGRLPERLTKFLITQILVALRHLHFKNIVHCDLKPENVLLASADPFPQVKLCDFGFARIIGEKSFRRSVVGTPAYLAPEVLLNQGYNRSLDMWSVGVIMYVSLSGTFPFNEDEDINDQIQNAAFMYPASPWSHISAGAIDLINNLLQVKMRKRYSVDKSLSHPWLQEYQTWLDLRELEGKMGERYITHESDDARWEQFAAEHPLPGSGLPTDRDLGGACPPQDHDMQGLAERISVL
Summary of the method: as §1

RSK2 = target: T4, RSK2 (Homo sapiens, UniProt P51812)
T4 construct: purchased Nanosyn (enzymatic panel); SGC in-house recombinant human kinases (DSF panel); Invitrogen (ALK1-6)
Summary of the method: as §1

ZAP70 = target: T5, ZAP70 (Homo sapiens, UniProt P43403)
T5 construct: purchased Nanosyn (enzymatic panel); SGC in-house recombinant human kinases (DSF panel); Invitrogen (ALK1-6)
T5 sequence (P43403 1-619): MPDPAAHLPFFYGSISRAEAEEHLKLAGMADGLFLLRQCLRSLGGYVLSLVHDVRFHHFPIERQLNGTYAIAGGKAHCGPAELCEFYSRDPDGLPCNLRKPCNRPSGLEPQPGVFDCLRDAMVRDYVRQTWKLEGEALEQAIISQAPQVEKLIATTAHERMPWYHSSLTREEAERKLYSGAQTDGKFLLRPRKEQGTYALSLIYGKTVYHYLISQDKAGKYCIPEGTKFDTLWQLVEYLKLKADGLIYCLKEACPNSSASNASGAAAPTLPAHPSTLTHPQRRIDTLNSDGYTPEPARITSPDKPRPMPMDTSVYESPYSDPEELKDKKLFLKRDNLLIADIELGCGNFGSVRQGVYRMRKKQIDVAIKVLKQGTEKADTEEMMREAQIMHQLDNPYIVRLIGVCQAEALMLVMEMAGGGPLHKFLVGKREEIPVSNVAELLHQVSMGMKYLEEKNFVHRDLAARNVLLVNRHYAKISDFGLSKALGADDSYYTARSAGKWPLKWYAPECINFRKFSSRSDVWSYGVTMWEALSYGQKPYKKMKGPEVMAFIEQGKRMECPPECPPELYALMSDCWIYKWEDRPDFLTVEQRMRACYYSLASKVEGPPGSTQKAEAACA
Summary of the method: as §1

T1 sequence (P49760 whole entry): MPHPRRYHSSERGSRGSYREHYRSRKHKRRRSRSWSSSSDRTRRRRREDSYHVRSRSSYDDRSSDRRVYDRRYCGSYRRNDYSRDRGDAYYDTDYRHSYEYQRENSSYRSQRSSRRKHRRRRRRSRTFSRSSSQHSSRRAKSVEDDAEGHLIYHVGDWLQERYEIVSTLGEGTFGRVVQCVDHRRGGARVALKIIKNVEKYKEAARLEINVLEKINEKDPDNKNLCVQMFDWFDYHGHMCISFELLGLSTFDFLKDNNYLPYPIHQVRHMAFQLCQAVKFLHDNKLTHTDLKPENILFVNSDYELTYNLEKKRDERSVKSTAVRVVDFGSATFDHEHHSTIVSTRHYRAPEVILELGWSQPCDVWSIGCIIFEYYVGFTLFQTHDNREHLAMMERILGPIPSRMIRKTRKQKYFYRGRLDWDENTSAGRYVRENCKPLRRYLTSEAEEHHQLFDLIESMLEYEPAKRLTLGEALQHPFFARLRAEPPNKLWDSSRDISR
T4 sequence (P51812 whole entry): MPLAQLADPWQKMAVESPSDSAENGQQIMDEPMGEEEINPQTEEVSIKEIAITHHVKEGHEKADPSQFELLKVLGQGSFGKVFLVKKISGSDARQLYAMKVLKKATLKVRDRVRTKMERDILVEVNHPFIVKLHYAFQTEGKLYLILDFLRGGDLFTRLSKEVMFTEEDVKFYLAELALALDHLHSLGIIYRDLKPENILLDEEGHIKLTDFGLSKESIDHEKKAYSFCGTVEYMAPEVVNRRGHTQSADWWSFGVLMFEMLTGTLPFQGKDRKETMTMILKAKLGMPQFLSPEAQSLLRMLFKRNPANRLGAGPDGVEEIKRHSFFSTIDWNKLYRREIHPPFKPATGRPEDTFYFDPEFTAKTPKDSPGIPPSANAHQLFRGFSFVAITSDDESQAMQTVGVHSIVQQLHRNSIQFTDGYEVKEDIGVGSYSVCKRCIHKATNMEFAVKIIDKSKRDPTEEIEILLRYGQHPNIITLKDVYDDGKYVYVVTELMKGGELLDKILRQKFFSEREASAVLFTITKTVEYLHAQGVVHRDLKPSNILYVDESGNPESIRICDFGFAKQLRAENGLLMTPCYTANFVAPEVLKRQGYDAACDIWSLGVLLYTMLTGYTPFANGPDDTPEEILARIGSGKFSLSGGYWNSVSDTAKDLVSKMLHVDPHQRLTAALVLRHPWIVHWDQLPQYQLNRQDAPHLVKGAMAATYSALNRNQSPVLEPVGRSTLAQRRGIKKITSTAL

Structure (SMILES)	inhibition at 0.1 µM (CLK2) [%]	inhibition at 1 µM (CLK2) [%]	inhibition at 0.1 µM (EPHA3) [%]	inhibition at 1 µM (EPHA3) [%]	inhibition at 0.1 µM (PRKD2) [%]	inhibition at 1 µM (PRKD2) [%]	inhibition at 0.1 µM (RSK2) [%]	inhibition at 1 µM (RSK2) [%]	inhibition at 0.1 µM (ZAP70) [%]	inhibition at 1 µM (ZAP70) [%]
COc1cc(-c2cc(-c3cccc(O)c3)cnc2N)cc(OC)c1OC [K02288, 3-[6-amino-5-(3,4,5-trimethoxy-phenyl)-pyridin-3-yl]-phenol]	0	0	-6	4.3	0.6	6.6	0.8	2.2	-2	1
c1ccc2c(-c3cnn4cc(-c5ccc(N6CCNCC6)cc5)cnc34)ccnc2c1 [LDN-193189]	2.3	35	2.2	6.3	4.5	13	1.2	5.4	4.7	1
